The source of these data is patent US8410168B2, “Methods and compositions for treating ophthalmic conditions with retinyl derivatives” (Acucela, Inc., priority 2004, dated 2013).

For one data set, the system named is mice. Nature of the data set: Retinoid composition, chromophore regeneration and electrophysiology in HPR-treated mice. Type of data set: in vivo. The settings on record: 10 mg/kg daily for 28 days. The text has this: Panels D-F of FIG. 17 are electrophysiological measurements of rod function (panel D), rod and cone function (panel E) and recovery from photobleaching (panel F).

The nature of data set [1]: HPR concentration in the RPE of treated mice. Type of data set: in vivo. As for the experimental part:
We examined the effects on HPR on enzymes or proteins of the visual cycle using in vitro biochemical assays. Specifically, the utilization of exogenous all-trans retinol by membranes prepared from bovine RPE was studied. […] Steady-state levels of HPR in the RPE (determined from mice which have been given 20 mg/kg HPR, i.p., daily for 28 days) range from 5-10 μM. With this in mind, we examined the effects of 10 μM HPR on production of all-trans retinyl esters and 11-cis retinol in assays similar to those described above. […] In the presence of endogenous retinoids, utilization of exogenous all-trans retinol is extremely low and 11-cis retinol is produced solely from the endogenous all-trans retinyl esters. […] Thus, the retinoic acids appear to affect at least two targets in the visual cycle. We have determined that HPR-induced reduction of 11-cis retinol biosynthesis occurs via LRAT inhibition and reduction in all-trans retinyl ester levels. In this situation, the isomerase enzyme is starved for substrate and 11-cis retinol production declines.
(§1) We performed an analysis of the dissociation constant (KD) for 11cRAL and HPR binding to apo-CRALBP (see FIG. 15). […] This calculation is based upon the ligand concentration necessary to fully quench the protein fluorescence. The data reveal that both 11cRAL and HPR quench apo-CRALBP fluorescence maximally at ˜1.5 μM. Thus, although apo-CRALBP is described as an 11 cis-specific retinoid binding protein, it appears to bind HPR as well.
A second target for HPR in the visual cycle was identified using in vitro biochemical assays. Lecithin retinol acyl transferase (LRAT) catalyzes the conversion of retinol into retinyl esters. LRAT is critical not only for retinol-retinyl ester homeostasis but also for generation of substrate for visual chromophore biosynthesis. The data shown in panel A of FIG. 16 illustrate the inhibitory effect of HPR on the rate of retinyl ester synthesis. […] In a separate study, we have determined that HPR concentrations in the RPE approach 10 μM with a 10 mg/kg dose of HPR.

The next data set has as its system abca4 null mutant mice. Nature of the data set: A2PE-H2 and A2E as a function of HPR dose, 28 days. The following applies: HPR daily for 28 days, several doses. The format is in vivo, mouse. The protocol:
Group averages from the data shown in panels A-G of FIG. 18 in Example 25 (28 day time points) are plotted to illustrate the strong correlation between increases in serum HPR and decreases in serum retinol (see FIG. 12). Reductions in serum retinol are highly correlated with reductions in A2E and precursor compounds (A2PE-H2). A pronounced reduction in A2PE-H2 in the 2.5 mg/kg dosage group (˜47%) is observed when the serum retinol reduction is only 20%. The reason for this disproportionate reduction is related to the inherently lower ocular retinoid content in this group of 2-month old animals compared to the other groups. It is likely that if these animals had been maintained on the 2.5 mg/kg dose for a more prolonged period, a greater reduction in A2E would also be realized.
ABCA4 null mutant mice were given the indicated dose of HPR in DMSO or DMSO alone daily for 28 days (n=16 mice per treatment group). At study onset, mice in the 2.5 mg/kg group were 2 months of age, mice in the other treatment groups were 3 months of age. At the indicated times, representative mice were taken from each group (n=4) for analysis of A2E precursor compounds (see FIG. 18, A2PE-H2, panels A, C and E) and A2E (see FIG. 18, panels B, D and F). […] Sample extracts were analyzed by LC. […]

Another data set has as its target T1, CRALBP (Homo sapiens, UniProt P12271).
T1 construct: made in house
Nature of the data set: Fluorescence quenching study of binding to CRALBP. As for the experimental part:
Apo-CRALBP at 0.5 μM was incubated with 1 μM of 11-cis Retinal (11cRAL), all-trans retinal (atRAL) or N-4-hydroxyphenyl retinamide (HPR) in PBS at room temperature for 1 hour. As a control, same volume of DMSO was added to the Apo-CRABLP solution. The emission spectra were measured between 290 nm to 500 nm with excitation wavelength at 280 nm and 2 nm bandpass (See FIG. 7).
Quenching of CRALBP protein fluorescence with 11-cis retinal (11cRAL). The fluorescence emission of recombinant apo-CRALBP (0.5 μM) was measured using 280 nm excitation (“no 11cRAL”).
Quenching of CRALBP protein fluorescence with HPR. The data shown were obtained using an experimental design identical to that described above. The fluorescence emission of recombinant apo-CRALBP was measured using 280 nm excitation (“no HPR”).
as §1

For data set [2], the system named is patients with a variety of cancers. The following applies: human patients; cited from earlier work.
The subject of the next data set is abcr null mutant mice. Nature of the data set: Lipofuscin autofluorescence in RPE and light microscopy of retina. Type of data set: in vivo, mouse. The settings on record: 28 days of HPR. The protocol: Treatment conditions are as described above.
HPR (10 mg/kg in DMSO) was administered to ABCA4−/− mice daily for a period of 28 days. Control ABCA4−/− mice received only DMSO for the same period. […] Importantly, the observed reductions in lipofuscin autofluorescence persist long after cessation of HPR therapy. HPR (10 mg/kg), or DMSO, administration was discontinued following 28 days of treatment and re-evaluated A2E and precursor levels after 2 weeks and after 4 weeks.

SMILES strings stand for the structures. Entries after “also recorded” stand apart in the source; their conditions may differ.

As usually defined, the Kd is the constant that tells how readily two partners part at equilibrium.

T1 sequence (P12271 whole entry, species assumed): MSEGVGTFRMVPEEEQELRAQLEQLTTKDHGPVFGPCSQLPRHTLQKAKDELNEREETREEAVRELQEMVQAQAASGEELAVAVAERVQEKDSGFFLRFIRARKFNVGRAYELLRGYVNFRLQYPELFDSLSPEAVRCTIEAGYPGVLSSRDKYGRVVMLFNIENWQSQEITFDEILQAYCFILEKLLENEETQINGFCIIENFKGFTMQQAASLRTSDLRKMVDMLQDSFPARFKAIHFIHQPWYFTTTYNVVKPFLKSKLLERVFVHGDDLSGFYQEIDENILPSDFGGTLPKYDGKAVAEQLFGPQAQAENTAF

Regarding `CC1=C(/C=C/C(C)=C/C=C/C(C)=C/C(=O)Nc2ccc(O)cc2)C(C)(C)CCC1` [HPR, N-(4-hydroxyphenyl)retinamide], the “regeneration of visual chromophore” value with mice was “does not affect”. Further, the “HPR concentrations in the RPE” value in data set [1] (10 mg/kg dose of HPR) was approximately 10 µM. In addition, the concentration at 28 days in data set [1] (BL6/129, mouse, RPE (retinal pigment epithelium), intraperitoneal, 20 mg/kg HPR, i.p., daily for 28 days, read-out: steady-state levels of HPR in the RPE) is 5 to 10 µM. Further, in data set [1] (even at the lowest dose of 2.5 mg/kg), the “concentrations of HPR in the RPE during the animal trials” value is listed as “exceed 30 nM”. Besides, the “A2PE-H2 and A2E during the study period” value in the data set on abca4 null mutant mice was “dose-dependent reductions”. The “concentration of maximal quenching of apo-CRALBP fluorescence” value at CRALBP was approximately 1.5 µM. For the same compound, on CRALBP (0.5 μM apo-CRALBP, 1 μM ligand, 1 hour, vs DMSO), the “quenching of CRALBP fluorescence emission” value is on record as “lowest”. Besides, the “concentration dependence of CRALBP protein fluorescence quenching” value at CRALBP (0.5 μM recombinant apo-CRALBP, 280 nm excitation) is “concentration dependent manner”. Moreover, the equilibrium dissociation constant (Kd) at CRALBP (transformation of fluorescence quenching data, read-out: dissociation constant (KD) for binding to apo-CRALBP) is approximately 30 nM. For the same compound, in data set [2], the “plasma concentration after high fat meals versus carbohydrate meals” value is “three times greater”. In the data set with abcr null mutant mice, the “lipofuscin autofluorescence in the RPE” value was “significantly reduces; also recorded: comparable to levels observed in untreated wild type mice” and the “retinal morphology by light microscopy” value is “No aberrant morphology or compromise of the integrity in retinal cytostructure was observed; also recorded: no alteration of retina cytostructure or morphology”.
